Source: US9187472B2 (AbbVie Inc., priority 2012, dated 2015)

What was measured:
NAMPT = NAMPT (Homo sapiens, UniProt P43490); assay: TR-FRET Binding Assay of NAMPT with PRPP; conditions: with 200 μM PRPP and 2.5 mM ATP; 2 nM NAMPT, 2 nM probe, 16 hours equilibration
Outline: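 Compounds were mixed with 2 nM His-tagged NAMPT, 2 nM probe, 1 nM terbium anti-His antibody, 200 μM PRPP and 2.5 mM ATP in assay buffer with 2% DMSO, then left 16 hours to permit possible enzymatic processing of compounds before time-resolved FRET was measured.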

[1] = biological target: NAMPT (human, recombinant, C-terminally His-tagged) (Homo sapiens, UniProt P43490); assay: Time-Resolved Fluorescence Resonance Energy Transfer (TR-FRET) Binding Assay of NAMPT; conditions: without substrates; 6.8 nM NAMPT, 200 nM probe, 3 hours equilibration
NAMPT (human, recombinant, C-terminally His-tagged), sequence (P43490 whole entry): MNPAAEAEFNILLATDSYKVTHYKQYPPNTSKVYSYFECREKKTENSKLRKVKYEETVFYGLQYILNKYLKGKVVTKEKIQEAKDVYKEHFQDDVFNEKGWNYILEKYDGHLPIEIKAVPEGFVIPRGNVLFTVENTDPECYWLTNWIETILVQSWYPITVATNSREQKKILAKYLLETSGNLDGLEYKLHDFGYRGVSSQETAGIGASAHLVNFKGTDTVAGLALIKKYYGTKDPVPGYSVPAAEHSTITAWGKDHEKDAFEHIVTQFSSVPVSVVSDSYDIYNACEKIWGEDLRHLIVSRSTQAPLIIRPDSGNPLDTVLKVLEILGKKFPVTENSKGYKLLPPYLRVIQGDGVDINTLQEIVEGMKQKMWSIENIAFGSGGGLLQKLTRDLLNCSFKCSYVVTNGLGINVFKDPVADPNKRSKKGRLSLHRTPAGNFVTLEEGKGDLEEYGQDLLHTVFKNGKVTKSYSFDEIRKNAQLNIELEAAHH
Outline: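 Compounds, diluted in half-log steps, are mixed with enzyme (6.8 nM), fluorescent probe (200 nM) and Tb-anti-His antibody (1 nM) in pH 7.5 HEPES buffer containing 10 mM MgCl2 and 1 mM DTT. Plates equilibrate 3 h at room temperature; normalized FRET ratios are fitted by four-parameter logistic regression for IC50.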

PC3 cells = assay: NAMPT Cell Proliferation Assay; assay type: cell-based; conditions: Homo sapiens, PC-3, 120 h, 5 days incubation, cell viability by Cell Titer Glo
Outline: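 IC50 values derive from sigmoidal dose-response fits of percent inhibition of PC3 viability, measured by luminescence after 5 days of compound treatment. Cells (500/well, RPMI containing 10% heat-inactivated FBS) are allowed to attach overnight, and compounds are tested at 10-fold dilutions between 10 μM and 1×10^−5 μM.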

NAMPT, sequence (P43490 whole entry): as above

| Structure (SMILES) | IC50 (NAMPT) | IC50 [1] | IC50 (PC3 cells) |
| --- | --- | --- | --- |
| N#Cc1cccc(C(=O)N2CCC(c3ccc(C(=O)NCc4ccn5ccnc5c4)cc3)C2)c1 (stereo not drawn) [Example 603, 4-[1-(3-cyanobenzoyl)pyrrolidin-3-yl]-N-(imidazo[1,2-a]pyridin-7-ylmethyl)benzamide] | 1.01 nM | 1030 nM | 695 nM |
| COc1cccc(C(=O)N2CCC(c3ccc(C(=O)NCc4ccn5ccnc5c4)cc3)C2)c1 (stereo not drawn) [Example 604, N-(imidazo[1,2-a]pyridin-7-ylmethyl)-4-[1-(3-methoxybenzoyl)pyrrolidin-3-yl]benzamide] | 0.843 nM | 151 nM | 10.1 nM |
| COc1ccc(C(=O)N2CCC(c3ccc(C(=O)NCc4ccn5ccnc5c4)cc3)C2)cc1 (stereo not drawn) [Example 605, N-(imidazo[1,2-a]pyridin-7-ylmethyl)-4-[1-(4-methoxybenzoyl)pyrrolidin-3-yl]benzamide] | 0.886 nM | 559 nM | 66.1 nM |
| Cn1cccc1C(=O)N1CCC(c2ccc(C(=O)NCc3ccn4ccnc4c3)cc2)C1 (stereo not drawn) [Example 606, N-(imidazo[1,2-a]pyridin-7-ylmethyl)-4-{1-[(1-methyl-1H-pyrrol-2-yl)carbonyl]pyrrolidin-3-yl}benzamide] | 0.169 nM | 281 nM | 34.8 nM |
| O=C(NCc1ccn2ccnc2c1)c1ccc(C2CCN(C(=O)CC3CCCCC3)C2)cc1 (stereo not drawn) [Example 607, 4-[1-(cyclohexylacetyl)pyrrolidin-3-yl]-N-(imidazo[1,2-a]pyridin-7-ylmethyl)benzamide] | 0.796 nM | 478 nM | 74.4 nM |
| O=C(NCc1ccn2ccnc2c1)c1ccc(C2CCN(C(=O)c3ccncc3)C2)cc1 (stereo not drawn) [Example 608, N-(imidazo[1,2-a]pyridin-7-ylmethyl)-4-[1-(pyridin-4-ylcarbonyl)pyrrolidin-3-yl]benzamide] | 0.51 nM | 481 nM | 148 nM |
| O=C(NCc1ccn2ccnc2c1)c1ccc(C2CCN(C(=O)c3cccnc3)C2)cc1 (stereo not drawn) [Example 609, N-(imidazo[1,2-a]pyridin-7-ylmethyl)-4-[1-(pyridin-3-ylcarbonyl)pyrrolidin-3-yl]benzamide] | 0.62 nM | 598 nM | 142 nM |
| O=C(NCc1ccn2ccnc2c1)c1ccc(C2CCN(C(=O)C3CCCCC3)C2)cc1 (stereo not drawn) [Example 610, 4-[1-(cyclohexylcarbonyl)pyrrolidin-3-yl]-N-(imidazo[1,2-a]pyridin-7-ylmethyl)benzamide] | 0.762 nM | 751 nM | 74.4 nM |
| O=C(NCc1ccn2ccnc2c1)c1ccc(C2CCN(C(=O)c3ccccn3)C2)cc1 (stereo not drawn) [Example 611, N-(imidazo[1,2-a]pyridin-7-ylmethyl)-4-[1-(pyridin-2-ylcarbonyl)pyrrolidin-3-yl]benzamide] | 0.621 nM | 288 nM | 70.9 nM |
| O=C(NCc1ccn2ccnc2c1)c1ccc(C2CCN(C(=O)c3ccoc3)C2)cc1 (stereo not drawn) [Example 612, 4-[1-(furan-3-ylcarbonyl)pyrrolidin-3-yl]-N-(imidazo[1,2-a]pyridin-7-ylmethyl)benzamide] | 0.919 nM | 706 nM | 695 nM |
| O=C(NCc1ccn2ccnc2c1)c1ccc(C2CCN(C(=O)c3nccs3)C2)cc1 (stereo not drawn) [Example 613, N-(imidazo[1,2-a]pyridin-7-ylmethyl)-4-[1-(1,3-thiazol-2-ylcarbonyl)pyrrolidin-3-yl]benzamide] | 0.916 nM | 347 nM | 140 nM |
| CC1(C(=O)N2CCC(c3ccc(C(=O)NCc4ccn5ccnc5c4)cc3)C2)CCCCC1 (stereo not drawn) [Example 614, N-(imidazo[1,2-a]pyridin-7-ylmethyl)-4-{1-[(1-methylcyclohexyl)carbonyl]pyrrolidin-3-yl}benzamide] | 0.67 nM | 216 nM | 5.72 nM |
| CC(C)C(C)C(=O)N1CCC(c2ccc(C(=O)NCc3ccn4ccnc4c3)cc2)C1 (stereo not drawn) [Example 615, 4-[1-(2,3-dimethylbutanoyl)pyrrolidin-3-yl]-N-(imidazo[1,2-a]pyridin-7-ylmethyl)benzamide] | 0.79 nM | 544 nM | 18.8 nM |
| Cc1cccc(C(=O)N2CCC(c3ccc(C(=O)NCc4ccn5ccnc5c4)cc3)C2)c1 (stereo not drawn) [Example 616, N-(imidazo[1,2-a]pyridin-7-ylmethyl)-4-[1-(3-methylbenzoyl)pyrrolidin-3-yl]benzamide] | 0.49 nM | 174 nM | 32.6 nM |
| O=C(NCc1ccn2ccnc2c1)c1ccc(C2CCN(C(=O)c3ccsc3)C2)cc1 (stereo not drawn) [Example 617, N-(imidazo[1,2-a]pyridin-7-ylmethyl)-4-[1-(thiophen-3-ylcarbonyl)pyrrolidin-3-yl]benzamide] | 0.645 nM | 164 nM | 82.6 nM |
| O=C(NCc1ccn2ccnc2c1)c1ccc(C2CCN(C(=O)c3cccc(OC(F)(F)F)c3)C2)cc1 (stereo not drawn) [Example 618, N-(imidazo[1,2-a]pyridin-7-ylmethyl)-4-{1-[3-(trifluoromethoxy)benzoyl]pyrrolidin-3-yl}benzamide] | 0.751 nM | 500 nM | 125 nM |
| Cc1ccsc1C(=O)N1CCC(c2ccc(C(=O)NCc3ccn4ccnc4c3)cc2)C1 (stereo not drawn) [Example 619, N-(imidazo[1,2-a]pyridin-7-ylmethyl)-4-{1-[(3-methylthiophen-2-yl)carbonyl]pyrrolidin-3-yl}benzamide] | 0.616 nM | 79.3 nM | 3.3 nM |
| O=C(NCc1ccn2ccnc2c1)c1ccc(C2CCN(C(=O)c3cccc(C(F)(F)F)c3)C2)cc1 (stereo not drawn) [Example 620, N-(imidazo[1,2-a]pyridin-7-ylmethyl)-4-{1-[3-(trifluoromethyl)benzoyl]pyrrolidin-3-yl}benzamide] | 1 nM | 710 nM | 131 nM |
| CC(C)(O)Cn1cc(-c2ccc(C(=O)NCc3ccc4ncnn4c3)s2)cn1 [Example 621, 5-[1-(2-hydroxy-2-methylpropyl)-1H-pyrazol-4-yl]-N-([1,2,4]triazolo[1,5-a]pyridin-6-ylmethyl)thiophene-2-carboxamide] | 5.42 nM | 114 nM | 25.3 nM |
| CC1(Cn2cc(-c3ccc(C(=O)NCc4ccc5ncnn5c4)s3)cn2)CCOCC1 [Example 622, 5-{1-[(4-methyltetrahydro-2H-pyran-4-yl)methyl]-1H-pyrazol-4-yl}-N-([1,2,4]triazolo[1,5-a]pyridin-6-ylmethyl)thiophene-2-carboxamide] | 2.36 nM | 29.4 nM | 7.06 nM |
| CS(=O)(=O)N1CC(c2ccc(C(=O)NCc3ccn4ccnc4c3)cc2)C1 [Example 623, N-(imidazo[1,2-a]pyridin-7-ylmethyl)-4-[1-(methylsulfonyl)azetidin-3-yl]benzamide] | 1.6 nM | 1010 nM | 446 nM |
| CS(=O)(=O)N1CCC(c2ccc(C(=O)NCc3ccn4ccnc4c3)cc2)C1 (stereo not drawn) [Example 624, N-(imidazo[1,2-a]pyridin-7-ylmethyl)-4-[1-(methylsulfonyl)pyrrolidin-3-yl]benzamide] | 0.627 nM | 261 nM | 329 nM |
| CCS(=O)(=O)N1CCC(c2ccc(C(=O)NCc3ccn4ccnc4c3)cc2)C1 (stereo not drawn) [Example 625, 4-[1-(ethylsulfonyl)pyrrolidin-3-yl]-N-(imidazo[1,2-a]pyridin-7-ylmethyl)benzamide] | 0.76 nM | 795 nM | 226 nM |
